In ChEMBL document CHEMBL5729134, “Apoptosis signal-regulating kinase 1 inhibitors and methods of use thereof” (2022):

Biological target: T1, Mitogen-activated protein kinase kinase kinase 5 (Homo sapiens, UniProt Q99683)
T1 sequence (Q99683 whole entry): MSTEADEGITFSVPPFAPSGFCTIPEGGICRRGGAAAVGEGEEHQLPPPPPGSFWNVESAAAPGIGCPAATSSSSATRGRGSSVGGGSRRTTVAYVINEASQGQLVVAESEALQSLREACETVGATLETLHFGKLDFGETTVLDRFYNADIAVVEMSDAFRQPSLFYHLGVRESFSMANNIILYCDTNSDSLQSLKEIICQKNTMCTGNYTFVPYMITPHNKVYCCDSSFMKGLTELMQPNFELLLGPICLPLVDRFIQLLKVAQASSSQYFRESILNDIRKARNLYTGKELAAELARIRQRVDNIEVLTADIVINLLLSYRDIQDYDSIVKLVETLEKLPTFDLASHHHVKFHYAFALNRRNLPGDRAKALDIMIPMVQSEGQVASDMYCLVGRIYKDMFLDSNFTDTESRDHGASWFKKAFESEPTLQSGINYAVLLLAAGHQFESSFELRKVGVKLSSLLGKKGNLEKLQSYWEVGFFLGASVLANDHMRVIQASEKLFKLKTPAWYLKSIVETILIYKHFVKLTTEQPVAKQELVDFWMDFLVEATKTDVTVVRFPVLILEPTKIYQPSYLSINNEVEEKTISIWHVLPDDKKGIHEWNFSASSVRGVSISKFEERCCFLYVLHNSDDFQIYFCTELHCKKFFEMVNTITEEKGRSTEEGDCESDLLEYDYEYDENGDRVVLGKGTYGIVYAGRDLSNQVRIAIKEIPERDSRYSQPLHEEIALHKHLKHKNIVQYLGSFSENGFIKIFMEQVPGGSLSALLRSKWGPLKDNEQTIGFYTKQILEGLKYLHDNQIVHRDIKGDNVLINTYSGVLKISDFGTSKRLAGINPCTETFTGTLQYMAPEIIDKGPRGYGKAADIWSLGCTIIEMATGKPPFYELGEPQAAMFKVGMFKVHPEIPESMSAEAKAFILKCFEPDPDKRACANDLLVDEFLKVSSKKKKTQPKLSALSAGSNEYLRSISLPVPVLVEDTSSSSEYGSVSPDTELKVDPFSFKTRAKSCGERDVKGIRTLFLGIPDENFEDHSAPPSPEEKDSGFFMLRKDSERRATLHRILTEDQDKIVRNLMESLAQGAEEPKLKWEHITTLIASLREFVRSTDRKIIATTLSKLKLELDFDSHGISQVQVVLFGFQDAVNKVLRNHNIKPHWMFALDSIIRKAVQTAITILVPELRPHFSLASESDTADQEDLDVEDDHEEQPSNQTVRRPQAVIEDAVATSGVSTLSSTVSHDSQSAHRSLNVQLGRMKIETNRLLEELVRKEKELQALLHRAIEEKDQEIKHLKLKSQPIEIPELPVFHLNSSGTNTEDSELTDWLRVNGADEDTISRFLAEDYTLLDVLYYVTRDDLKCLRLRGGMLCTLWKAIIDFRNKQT
Assay: HTRF KinEASE Assay : ASK1 was purchased from Thermofisher (Catalogue #PV4011), ATP was purchased from Sigma (Catalogue #A7699), HTRF® KinEASE Assay System was obtained from Cisbio (Bedford, Mass.). ½ Area plate was purchased from Perkin Elmer (Catalogue ##6005560). HTRF® KinEASE-STK is a generic method for measuring serine/threonine kinase activities using a time-resolved fluorescence resonance energy transfer (TR-FRET) immunoassay. The IC50 value for each compound was determined in the presence of compound (various concentration from 0 to 10 μM) and a fixed amount of ATP and peptide substrates. The test compound, 1 μM STK3 peptide substrate, and […] are incubated with kinase reaction buffer containing 50 mM HEPES Ph 7.5, 0.01% BRIJ-35, 10 mM MgCl2, and 1 mM EGTA for 30 minutes. 100 μM ATP is added to start kinase reaction and incubated for 3 hours. The STK3-antibody labeled with Eu3+-Cryptate and 125 nM streptavidin-XL665 are mixed in a single addition with stop reagents provided by the Cisbio kit used to stop the kinase reaction. Fluorescence is detected using an Envision Multilabeled 2014 reader from PerkinElmer. The Fluorescence is measured at 615 nm (Cryptate) and 665 nm (XL665) and a ratio of 665 nm/615 nm is calculated for each well. The resulting TR-FRET is proportional to the phosphorylation level. Staurosporine was used as the positive control. IC50 was determined by Xlfit 5.3.

## COc1cc2c(cc1C(=O)Nc1cccc(-c3nnnn3[C@@H]3CCC[C@@H]3O)n1)CN(C(=O)OCC(F)(F)F)CC2
  IC50: 1.25 to 10 nM

## COc1cc2c(cc1C(=O)Nc1cccc(-c3nnnn3[C@H](C)CO)n1)CN(C(=O)OCc1ccccc1)CC2
  IC50: < 1.25 nM

## C[C@H](CO)n1cnnc1-c1cccc(NC(=O)c2cc3c(cc2F)CCN(C(=O)OC2CCCC2)C3)n1
  IC50: 1.25 to 10 nM

## C[C@H](CO)n1cnnc1-c1cccc(NC(=O)c2cc3c(cc2F)CCN(S(=O)(=O)C2CC2)C3)n1
  IC50: < 1.25 nM

## COc1cc2c(cc1C(=O)Nc1cccc(-c3nncn3C(C)C)n1)CN(C(=O)C(C)(C)C)CC2
  IC50: 1.25 to 10 nM

## CCOC(=O)N1CCc2cnc(C(=O)Nc3cccc(-c4nncn4C(C)C)n3)cc2C1
  IC50: 1.25 to 10 nM

## CCNC(=O)N1CCc2cnc(C(=O)Nc3cccc(-c4nncn4[C@H](C)CO)n3)cc2C1
  IC50: 1.25 to 10 nM

## COc1cc2c(cc1C(=O)Nc1cccc(-c3nncn3C(C)C)n1)CN(S(=O)(=O)C1CC1)CC2
  IC50: 1.25 to 10 nM

## COc1cc2c(cc1C(=O)Nc1cccc(-c3nnnn3[C@H](C)CO)n1)CN(S(=O)(=O)C1CC1)CC2
  IC50: < 1.25 nM

## CC(C)N1CCc2cc(F)c(C(=O)Nc3cccc(-c4nncn4[C@H](C)CO)n3)cc2C1
  IC50: < 1.25 nM

## COc1cc2c(cc1C(=O)Nc1cccc(-c3nnnn3C(C)C)n1)CN(S(=O)(=O)C1CC1)CC2
  IC50: < 1.25 nM

## COc1cc2c(cc1C(=O)Nc1cccc(-c3nncn3[C@H](C)CO)n1)CN(C(=O)N1CCCC1)CC2
  IC50: < 1.25 nM

## CCOC(=O)N1CCc2cc(OC)c(C(=O)Nc3cccc(-c4nnnn4[C@H](C)CO)n3)cc2C1
  IC50: 1.25 to 10 nM

## COc1cc2c(cc1C(=O)Nc1cccc(-c3nncn3[C@H](C)CO)n1)CN(C)CC2
  IC50: < 1.25 nM

## COc1cc2c(cc1C(=O)Nc1cccc(-c3nnnn3[C@H](C)CO)n1)CN(C(=O)c1ccc(F)cc1)CC2
  IC50: < 1.25 nM

## C[C@H](CO)n1cnnc1-c1cccc(NC(=O)c2cc3c(cc2F)CCN(S(=O)(=O)CCC(F)(F)F)C3)n1
  IC50: < 1.25 nM

## C[C@H](CO)n1cnnc1-c1cccc(NC(=O)c2cc3c(cc2F)CCN(C(=O)N(C)C)C3)n1
  IC50: 1.25 to 10 nM

## C[C@H](CO)n1cnnc1-c1cccc(NC(=O)c2cc3c(cc2F)CCN(C(=O)N2CCCC2)C3)n1
  IC50: < 1.25 nM

## C[C@H](CO)n1cnnc1-c1cccc(NC(=O)c2cc3c(cn2)CCN(Cc2ccccn2)C3)n1
  IC50: < 1.25 nM

## CCNC(=O)N1CCc2cc(OC)c(C(=O)Nc3cccc(-c4nncn4[C@H](C)CO)n3)cc2C1
  IC50: < 1.25 nM

## CCNC(=O)N1CCc2cc(OC)c(C(=O)Nc3cccc(-c4nncn4C(C)C)n3)cc2C1
  IC50: < 1.25 nM

## C[C@H](CO)n1cnnc1-c1cccc(NC(=O)c2cc3c(cc2F)CCN(C(=O)OCC(F)(F)F)C3)n1
  IC50: < 1.25 nM

## COc1cc2c(cc1C(=O)Nc1cccc(-c3nnnn3C(C)C)n1)CN(C(=O)OCc1ccccc1)CC2
  IC50: < 1.25 nM

## C[C@H](CO)n1cnnc1-c1cccc(NC(=O)c2cc3c(cn2)CCN(C(=O)OCC(F)(F)F)C3)n1
  IC50: < 1.25 nM

## CCOC(=O)N1CCc2cc(OC)c(C(=O)Nc3cccc(-c4nnnn4C(C)C)n3)cc2C1
  IC50: < 1.25 nM

## C[C@H](CO)n1cnnc1-c1cccc(NC(=O)c2cc3c(cc2F)CCN(C(=O)OCCF)C3)n1
  IC50: < 1.25 nM

## CCNC(=O)N1CCc2cc(OC)c(C(=O)Nc3cccc(-c4nnnn4[C@H](C)CO)n3)cc2C1
  IC50: 1.25 to 10 nM

## COc1cc2c(cc1C(=O)Nc1cccc(-c3nncn3[C@H](C)CO)n1)CN(S(=O)(=O)CCC(F)(F)F)CC2
  IC50: < 1.25 nM

## COc1cc2c(cc1C(=O)Nc1cccc(-c3nncn3C(C)C)n1)CN(C(=O)c1ccc(F)cc1)CC2
  IC50: < 1.25 nM

## COc1cc2c(cc1C(=O)Nc1cccc(-c3nnnn3[C@H](C)CO)n1)CN(C(=O)c1cnn(C)c1)CC2
  IC50: < 1.25 nM

## COc1cc2c(cc1C(=O)Nc1cccc(-c3nncn3C(C)C)n1)CN(C(=O)OCC(F)(F)F)CC2
  IC50: < 1.25 nM

## COc1cc2c(cc1C(=O)Nc1cccc(-c3nnnn3C(C)C)n1)CN(C(=O)OCC(F)(F)F)CC2
  IC50: < 1.25 nM

## COc1cc2c(cc1C(=O)Nc1cccc(-c3nnnn3C(C)C)n1)CN(C(=O)c1ccc(F)cc1)CC2
  IC50: < 1.25 nM

## CCOC(=O)N1CCc2cc(F)c(C(=O)Nc3cccc(-c4nncn4[C@H](C)CO)n3)cc2C1
  IC50: < 1.25 nM

## CCNC(=O)N1CCc2cc(OC)c(C(=O)Nc3cccc(-c4nnnn4C(C)C)n3)cc2C1
  IC50: < 1.25 nM

## COc1cc2c(cc1C(=O)Nc1cccc(-c3nncn3[C@H](C)CO)n1)CN(C(=O)c1ccc(F)cc1)CC2
  IC50: 1.25 to 10 nM

## COc1cc2c(cc1C(=O)Nc1cccc(-c3nncn3[C@H](C)CO)n1)CN(C(C)C)CC2
  IC50: < 1.25 nM

## C[C@H](CO)n1cnnc1-c1cccc(NC(=O)c2cc3c(cn2)CCN(S(=O)(=O)c2ccccc2)C3)n1
  IC50: < 1.25 nM

## COc1cc2c(cc1C(=O)Nc1cccc(-c3nncn3[C@H](C)CO)n1)CN(C(=O)C(C)(C)C)CC2
  IC50: < 1.25 nM

## CC(C)n1cnnc1-c1cccc(NC(=O)c2cc3c(cn2)CCN(C(=O)c2ccc(F)cc2)C3)n1
  IC50: 1.25 to 10 nM

## COc1cc2c(cc1C(=O)Nc1cccc(-c3nncn3C(C)C)n1)CN(S(=O)(=O)CCC(F)(F)F)CC2
  IC50: 1.25 to 10 nM

## COc1cc2c(cc1C(=O)Nc1cccc(-c3nncn3[C@H](C)CO)n1)CN(C(=O)OC(C)(C)C)CC2
  IC50: < 1.25 nM

## COc1cc2c(cc1C(=O)Nc1cccc(-c3nnnn3C(C)C)n1)CN(C)CC2
  IC50: < 1.25 nM

## COc1cc2c(cc1C(=O)Nc1cccc(-c3nncn3[C@H](C)CO)n1)CN(S(=O)(=O)C1CC1)CC2
  IC50: 1.25 to 10 nM

## CCNC(=O)N1CCc2cc(F)c(C(=O)Nc3cccc(-c4nncn4[C@H](C)CO)n3)cc2C1
  IC50: < 1.25 nM

## COc1cc2c(cc1C(=O)Nc1cccc(-c3nnnn3C(C)C)n1)CN(C(=O)C(C)(C)C)CC2
  IC50: < 1.25 nM

## COc1cc2c(cc1C(=O)Nc1cccc(-c3nncn3C(C)C)n1)CN(C)CC2
  IC50: < 1.25 nM

## COc1cc2c(cc1C(=O)Nc1cccc(-c3nnnn3[C@H](C)CO)n1)CN(C(=O)c1cn(C3CC3)cn1)CC2
  IC50: 1.25 to 10 nM

## C[C@H](CO)n1cnnc1-c1cccc(NC(=O)c2cc3c(cc2F)CCN(C(=O)NC2CCCC2)C3)n1
  IC50: < 1.25 nM

## CCOC(=O)N1CCc2cc(OC)c(C(=O)Nc3cccc(-c4nncn4[C@H](C)CO)n3)cc2C1
  IC50: < 1.25 nM

## COc1cc2c(cc1C(=O)Nc1cccc(-c3nnnn3[C@H](C)CO)n1)CN(C(=O)OCC(F)(F)F)CC2
  IC50: 1.25 to 10 nM

## COc1cc2c(cc1C(=O)Nc1cccc(-c3nncn3C(C)C)n1)CN(C(C)C)CC2
  IC50: 1.25 to 10 nM

## C[C@H](CO)n1cnnc1-c1cccc(NC(=O)c2cc3c(cc2F)CCN(C(=O)C(C)(C)C)C3)n1
  IC50: 1.25 to 10 nM

## CC(C)n1cnnc1-c1cccc(NC(=O)c2cc3c(cc2F)CCN(c2ncccn2)C3)n1
  IC50: < 1.25 nM

## CC(C)OC(=O)N1CCc2cc(F)c(C(=O)Nc3cccc(-c4nncn4[C@H](C)CO)n3)cc2C1
  IC50: < 1.25 nM

## COc1cc2c(cc1C(=O)Nc1cccc(-c3nnnn3[C@H](C)CO)n1)CN(C(C)C)CC2
  IC50: < 1.25 nM

## CCOC(=O)N1CCc2cnc(C(=O)Nc3cccc(-c4nncn4[C@H](C)CO)n3)cc2C1
  IC50: < 1.25 nM

## CC(C)n1cnnc1-c1cccc(NC(=O)c2cc3c(cn2)CCN(Cc2ccccn2)C3)n1
  IC50: < 1.25 nM

## COc1cc2c(cc1C(=O)Nc1cccc(-c3nnnn3C(C)C)n1)CN(C(=O)OC(C)C)CC2
  IC50: < 1.25 nM

## COc1cc2c(cc1C(=O)Nc1cccc(-c3nnnn3[C@H](C)CO)n1)CN(C(=O)C(C)(C)C)CC2
  IC50: < 1.25 nM

## COc1cc2c(cc1C(=O)Nc1cccc(-c3nncn3[C@H](C)CO)n1)CN(C(=O)OCC(F)(F)F)CC2
  IC50: 1.25 to 10 nM

## COc1cc2c(cc1C(=O)Nc1cccc(-c3nnnn3[C@H](C)CO)n1)CN(C(=O)OC(C)C)CC2
  IC50: < 1.25 nM

## COc1cc2c(cc1C(=O)Nc1cccc(-c3nnnn3C(C)C)n1)CN(C(=O)N1CCCC1)CC2
  IC50: < 1.25 nM
